Several values for one entry are separate records, joined by “and”; a condition that tells them apart may be missing. Equal entries are not always repeated. Where two headings read alike, the source gives them in different places.
Key:
[1] = PAMPA-BBB permeability assay; conditions: for PAMPA-BBB −logPe: 4 h under stirring, Prisma HT buffer; for CNS+/– Prediction: from PAMPA-BBB permeability, limit for BBB permeation Pe > 4.0 × 10^−6 cm/s
Procedure: (§1) Measurements were performed at room temperature with incubation for 4 h under stirring.
(§2) Parallel Artificial Membrane Permeability Assay (PAMPA)
(§3) Determination of blood-brain barrier (BBB) permeability was performed using the PAMPA Explorer kit
(§4) (Pion, Inc.). Stock solutions of tested and standard compounds were prepared in DMSO (10 mM and 50
(§5) The corresponding stock solutions were diluted to a final
(§6) concentration of 10 µM and 50 µM (5.0 µL/well, 1% v/v final DMSO concentration) with pH 7.4 Prisma
(§7) HT buffer solution in deionized water (Pion) using a deep-well plate. The first row of this plate was filled
(§8) with DMSO. For the preparation of pH-dependent PAMPA experiments, the pH of Prisma solution was
(§9) adjusted to pH 3.0 or 6.2 by adding aliquots of 0.5 M NaOH. The resulting solution (200 µL) was added
(§10) to each well of the donor plate (n = 6).
(§11) the acceptor plate was coated with 5 µL/well of the GIT-0 lipid (Pion) formulation and placed on the top
(§12) of the donor plate to form a “sandwich” plate. Then, 200 µL of brain sink buffer (BSB, Pion) was added
(§13) to each well of the acceptor plate. The “sandwich” plate was incubated in a Good-Box (Pion) at 37 °C for
(§14) 4 h with stirring at 60 (ABL t.u.). After that, 150 µL/well of each well of the “sandwich” plates were
(§15) transferred into the corresponding UV read acceptor and donor plates. A blank UV read 96-well plate with
(§16) 150 µL/well of each buffer solution was prepared. An Epoch microplate reader was used to obtain the
(§17) UV-vis spectra (250–500 nm) of the solutions in the blank, acceptor, and donor plates. The Pe and –logPe
(§18) values for each compound were processed using the PAMPA Explorer software v.3.8 (Pion).

[2] = PAMPA
Procedure: as §1, §2, §3, §4, §5, §6, §7, §8, §9, §10, §11, §12, §13, §14, §15, §16, §17, §18

[3] = PAMPA-BBB standard drugs; cited from earlier work
[4] = Solubility studies (HPLC-UV/ESI-MS; kinetic solubility); assay type: physicochemical; conditions: measured, solubility in mol/L at pH 7.4 in 60 mM phosphate buffer or pure water at rt; for solubility: 60 mM phosphate buffer or pure water, pH 7.4, aqueous buffer, read-out: logS7.4
hMAO-B [5] = target: T1, hMAO-B (Homo sapiens, UniProt P27338); experiment: MAO-B kinetic experiments (Lineweaver-Burk); assay type: biochemical; set-up: purchased Sigma-Aldrich M7441; host or cells: baculovirus-infected BTI-TN-5B1-4 insect cells (microsomes); conditions: 0.5 and 1.0 nM inhibitor, varied p-tyramine
T1 sequence (P27338 1-520): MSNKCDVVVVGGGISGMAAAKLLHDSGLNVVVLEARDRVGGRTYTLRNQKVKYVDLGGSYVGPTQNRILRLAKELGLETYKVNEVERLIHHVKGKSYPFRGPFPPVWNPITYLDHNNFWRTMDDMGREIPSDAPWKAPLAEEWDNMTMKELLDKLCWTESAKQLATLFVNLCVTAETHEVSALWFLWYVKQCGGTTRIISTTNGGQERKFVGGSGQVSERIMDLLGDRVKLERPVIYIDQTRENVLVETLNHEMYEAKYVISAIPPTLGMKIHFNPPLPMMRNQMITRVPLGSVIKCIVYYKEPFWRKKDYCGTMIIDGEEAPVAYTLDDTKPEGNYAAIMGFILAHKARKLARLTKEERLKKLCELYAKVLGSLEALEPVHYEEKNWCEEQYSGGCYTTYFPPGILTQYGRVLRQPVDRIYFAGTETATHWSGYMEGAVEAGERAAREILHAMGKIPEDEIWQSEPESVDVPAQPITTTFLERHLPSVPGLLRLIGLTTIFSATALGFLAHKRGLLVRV
Procedure: (§19) final concentration) MAO-B inhibitors were used as references. Indazole-based compounds (1.0 nM final
(§20) concentration) as well as reference inhibitors were studied at their IC80 values without pre-incubation of
(§21) the hMAO-B enzyme/inhibitor mixtures. Control experiments without inhibitors were run for each
(§22) compound. The enzyme reaction was started by adding 10 µM of the substrate p-tyramine and the
enzymatic activity of the tested compounds was measured for 22 min.
The catalytic rates of hMAO-B were measured at different
The measurements were conducted
(§23) in duplicate using the same hMAO-B assay conditions as described for the determination of IC50 values.

hMAO-B [6] = target: T1, hMAO-B; conditions: at IC80: NTZ compounds 1.0 nM, selegiline 30 nM, safinamide 50 nM; p-tyramine raised to 1.0 mM after 22 min
Procedure: as §19, §20, §21, §22
enzymatic activity of the tested compounds was measured for 22 min. Then, the substrate concentration
fluorescence measurements for 5 h.
The measurements were conducted
as §23

[7] = Solubility studies (HPLC-UV/ESI-MS; kinetic solubility); assay type: physicochemical; conditions: thermodynamic from solid
Procedure: Solid […]
samples of compounds (2–4 mg) were weighed and serial diluted in 1.0 mL either of water (Purelab flex) or water-methanol (1:1). A precisely weighed sample of the respective compound in methanol (1.0 ± 0.05 mg/mL) was used as a reference. A blank solution without detectable analyte was used for instrument calibration for each experiment. The suspensions were mixed on a vortex for 5 min, sonicated for 1 h, and then shaken over night at rt. After that, the samples were left for 1 h at rt and then filtered through a 0.45 µm filter. Aliquots (10 µL) of each sample were injected into the HPLC/ESI-MS system (Applied
(1 picture or pasted object on this page, not shown here)
Biosystems API 2000 ESI-MS, HPLC Agilent 1100 binary pump system) equipped with a Phenomenex Luna C18 reverse phase column and subsequently measured by chromatographic procedure (DAD detection) with mass conformation (MS scan in positive and negative mode). The mass scan method was adapted for each tested compound depending on its limit of detection (LOD) and physicochemical properties (Table S1, Figure S2). The solubility of the compounds was calculated by Analyst software v.
1.5.1 (AB Sciex Pte. Ltd.) using one point calibration after subtraction the absorbance of the blank solution from the total analyte peak area measured for each sample in the experiments. To verify the results, an equimolar mixture (each in a concentration equal to 1.0 mg/mL) of the compounds in methanol was prepared and measured under the same conditions as described above (see Figure 4A). All experiments were performed in triplicate with at least three analytical runs for each sample.
The solubility data for tested compounds, obtained from the different analytical techniques, are […]
Table S1. Solubility data for selected compounds.
Compd. Methoda Solubility in 50% methanolb Solubility in waterb […]
a Method of detection: HPLC-UV method 1 (DAD), HPLC/ESI-MS method 2 (+Q/–Q scan: +MI+H+/– MI–H–). b The values are the mean ± SD (n ≥ 3).

[8] = Chemical stability in phosphate buffer; assay type: physicochemical; conditions: chemical stability in 10 mM phosphate buffer at pH 7.4; 60 days at room temperature
Procedure: The purity and solubility of the compounds was determined by an analytical HPLC-UV method using an LC-MS instrument (Applied Biosystems API 2000 LC/ESI-MS; HPLC Agilent 1100 binary pump system) coupled with a diode array detector (DAD) with an UV absorption in the range from 220 to 400 nm. Mass spectra were recorded on an API 2000 mass spectrometer equipped with an electrospray ion source (ESI) by using triple ion quadrupole (TIC) with an alternating full scan detection in positive (+Q) and/or negative (-Q) mode. As mobile phases for the different analytical LC methods were used methanol (Sigma-Aldrich, Chromasolv LC-MS grade), ammonium acetate (2.0 mM) and water Purelab flex.
500 µL of a 10 mM compound stock solution in DMSO, ACN or MeOH was added to a 2.0 mL HPLC glass vial containing 500 µL phosphate buffer (10 mM, pH 7.4) and sonicated for 60 sec. The sample was shaken at 37 °C for 2 hours and then left for 60 days at room temperature under light exposure. The chemical stability of compounds was checked by UV-visible spectroscopy (Figure S1).

[9] = Octanol-water distribution coefficient (logD); conditions: for logD7.4: measured, pH 7.4 in 60 mM phosphate buffer at rt
human recombinant MAO-A = target: T2, human recombinant MAO-A (Homo sapiens, UniProt P21397); assay type: biochemical
T2 construct: purchased Sigma-Aldrich M7316; host or cells: baculovirus-infected BTI-TN-5B1-4 insect cells (microsomes)
T2 sequence (P21397 1-527): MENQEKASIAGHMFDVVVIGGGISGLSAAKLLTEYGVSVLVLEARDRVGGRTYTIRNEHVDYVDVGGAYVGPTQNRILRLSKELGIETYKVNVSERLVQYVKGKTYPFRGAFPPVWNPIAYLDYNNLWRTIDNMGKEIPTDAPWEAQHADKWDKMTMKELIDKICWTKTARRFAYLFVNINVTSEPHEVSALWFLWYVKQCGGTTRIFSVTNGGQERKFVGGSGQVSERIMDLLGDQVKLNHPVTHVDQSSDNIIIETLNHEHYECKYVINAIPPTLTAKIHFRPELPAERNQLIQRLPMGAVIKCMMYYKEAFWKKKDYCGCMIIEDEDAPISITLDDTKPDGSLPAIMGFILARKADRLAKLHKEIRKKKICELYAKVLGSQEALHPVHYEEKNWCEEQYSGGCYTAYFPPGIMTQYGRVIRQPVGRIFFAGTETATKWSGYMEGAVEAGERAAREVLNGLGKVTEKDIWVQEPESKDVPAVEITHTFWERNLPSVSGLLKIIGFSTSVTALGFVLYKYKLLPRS

[10] = PAMPA-BBB validation with standard drugs
[11] = pure water (Purelab flex), water, method 1: HPLC-UV (DAD), read-out: Solubility in water Sw
[12] = pure water (Purelab flex), water, method 1: HPLC-UV (DAD), read-out: Solubility in water logSw
[13] = pure water (Purelab flex), water, method 2: HPLC/ESI-MS, read-out: Solubility in water logSw
[14] = pure water (Purelab flex), water, pure water, mean ± SD (n ≥ 3), read-out: Solubility in water
[15] = water-methanol (1:1), aqueous with cosolvent or surfactant or cyclodextrin, mean ± SD (n ≥ 3), read-out: Solubility in 50% methanol
[16] = water-methanol (1:1), aqueous with cosolvent or surfactant or cyclodextrin, method 1: HPLC-UV (DAD), read-out: Solubility in 50% methanol S
[17] = water-methanol (1:1), aqueous with cosolvent or surfactant or cyclodextrin, method 1: HPLC-UV (DAD), read-out: Solubility in 50% methanol logS
[18] = water-methanol (1:1), aqueous with cosolvent or surfactant or cyclodextrin, method 2: HPLC/ESI-MS, read-out: Solubility in 50% methanol logS
[19] = pure water (Purelab flex), water, method 2: HPLC/ESI-MS, read-out: Solubility in water Sw
[20] = water-methanol (1:1), aqueous with cosolvent or surfactant or cyclodextrin, method 2: HPLC/ESI-MS, read-out: Solubility in 50% methanol S

Structure (SMILES)	Reported –logPe [3]	PAMPA-BBB −logPe [1]	Papp at 4 h, 10 µM ([1]; PAMPA, pH 7.4)	logS7.4 [4]	mode of interaction with hMAO-B (reversible or irreversible) (hMAO-B [6])	solubility [7, 11]	solubility [7, 12]	solubility [7, 13]	solubility [7, 14]	solubility [7, 15]	solubility [7, 16]	solubility [7, 17]	solubility [7, 18]	Stability [8]	other results
CC(C)NCC(O)COc1cccc2ccccc12.Cl (stereo not shown) [Propranolol HCl, reference compound]	4.1 ± 0.25	–	–	–	–	–	–	–	–	–	–	–	–	–	Experiment Pe [1, 10]: 98.7 ± 9.96 10-6 cm/s; Experiment –logPe [1, 10]: 4.01 ± 0.04; CNS+/– Prediction [2]: CNS+
Cn1ncc2cc(C(=O)Nc3ccc(Cl)c(Cl)c3)ccc21 [NTZ-1091]	–	3.91	1180 ± 64 nm/s	−4.75	reversible inhibitors of hMAO-B	0.75 µg/mL and 2.36 µM	2.34 µM	17.8 µM	5.62 µg/mL and 17.6 µM	156 µg/mL and 490 µM	105 µg/mL and 300 µM	331 µM	447 µM	Stable	type of hMAO-B inhibition (Lineweaver–Burk) (hMAO-B [5]): linear and intersected at the Y-axis
Cn1c(=O)c2[nH]cnc2n(C)c1=O [Theophylline]	> 6.0 ± 0.25	–	–	–	–	–	–	–	–	–	–	–	–	–	–
O=C(Nc1ccc(F)c(F)c1)c1ccc2[nH]ncc2c1 [NTZ-1034]	–	–	–	−4.22	–	–	–	–	–	–	–	–	–	Stable	logD7.4 [9]: 2.04
CC(=O)[C@H]1CC[C@H]2[C@@H]3CCC4=CC(=O)CC[C@]4(C)[C@H]3CC[C@]12C [Progesterone, reference compound]	3.7 ± 0.25	–	–	–	–	–	–	–	–	–	–	–	–	–	Papp at 4 h ([1]; PAMPA, pH 7.4): 552 ± 0.2 nm/s; Experiment –logPe [1, 10]: 4.26 ± 0.00; CNS+/– Prediction [1]: CNS+
O=C(Nc1ccc(Cl)c(Cl)c1)c1ccc2[nH]ncc2c1 [NTZ-1006]	–	–	–	–	reversible inhibitors of hMAO-B	–	–	–	–	–	–	–	–	Stable	IC50 (human recombinant MAO-A): > 10 µM
O=C(Nc1ccc(F)c(Cl)c1)c1ccc2[nH]ncc2c1 [NTZ-1032]	–	–	–	–	–	–	–	–	–	–	–	–	–	Stable	–
Cn1ncc2cc(C(=O)Nc3ccc(F)c(F)c3)ccc21 [NTZ-1471]	–	3.83	1480 ± 24 nm/s	−3.67	–	10.4 µg/mL and 36.3 µM	38.9 µM	214 µM	61.6 µg/mL and 215 µM	610 µg/mL and 2120 µM	631 µg/mL and 2180 µM	2190 µM	2140 µM	Stable	CNS+/– Prediction [1]: CNS+; solubility [4]: > 100 µM; solubility [7, 19]: 214 ± 33.3 µM; solubility [7, 20]: 0.61 ± 0.0262 mg/mL
Cn1ncc2cc(C(=O)Nc3ccc(F)c(Cl)c3)ccc21 [NTZ-1441]	–	3.84	1440 ± 34 nm/s	−3.87	–	10.6 µg/mL and 34.9 µM	34.7 µM	135 µM	42.1 µg/mL and 136 µM	609 µg/mL and 2040 µM	663 µg/mL and 2190 µM	2190 µM	2040 µM	Stable	solubility [4]: > 100 µM; logD7.4 [9]: 2.19; logD ([9]; octanol/water, pH 7.4): < 3; solubility [7, 19]: 136 ± 5.16 µM; solubility [7, 20]: 0.609 ± 0.0487 mg/mL
C[C@H](NCc1ccc(OCc2cccc(F)c2)cc1)C(N)=O [Safinamide, reference compound]	–	–	–	–	reversible	–	–	–	–	–	–	–	–	–	–
